{
  "source": "patent US20070128657A1",
  "about": "“Molecular libraries” (priority 2002, published 2007)",
  "type_in_all_cases": "cell-based, Homo sapiens (human)",
  "key": {"[1]": {"tested_on": "R273H/P309S p53 mutant", "assay": "RT-PCR of genes transactivated by wild-type p53 in ligand transfected SW480.7 cells", "method": "(§1) The purpose of this experiment is to confirm that the selected peptide ligand indeed restores the mutated p53 protein to the wild-type p53 function in SW480.7 cells. […] There might be a chance that the cells got the resistance with, or even without the help of the selected ligand via mechanisms other than p53-transactivated p21 promoter. Thus we should make sure that the mutant p53 in SW480.7 cells functions as wild-type p53 only if the selected ligand is added. […] The selected peptide ligand can be further verified only if it can induce cell cycle arrest or apoptosis in SW480.7 cells but neither in U-2 OS nor in Saos2 cells, which means the specificity of the selected ligand to p53 mutation in SW480.7. • 2—We also tested the transcription levels of genes that are only transactivated by wild-type p53.\nP53 (wild-type) regulates different cell responses via transactivating different downstream genes. For example p53 causes cell cycle arrest at G1 phase by transactivation of p21 gene. While p53 causes cell arrest at G2 phase by transactivation of […]. Apoptosis is due to p53 transactivation of […] and/or Bax gene. Thus we measured p21, CD95, and 14-3-3σ gene transcription levels by RT PCR, to reveal the capability of the selected peptide ligand in restoring the wild-type p53 transactivation of the downstream genes. The expression level of β-actin was measured as a control. β-Actin transcription level was used to normalize total mRNA amount between samples for comparison owing to its constitutive expression in all cells.\nAfter transfection, cells were cultured without drug selection and diluted at the ratio of 1:100 every five days. Cell proliferation status was closely observed until ligand transfected SW480.7 cells died out. Life staining with 0.4% trypan blue was applied to determine the death of the cells. Dead cells can not exclude the dye thus were stained blue. Living cells can pump the dye outside thus were not stained. Total RNA was collected from two wells of one ligand transfected SW480.7 plate and one pCEP4 transfected SW480.7 plate each day on day 0, day 1, and day 2 after transfection. Thus RNA samples were harvested as SW480.7/Ligand-0 day, SW480.7/Ligand-1 day, SW480.7/Ligand-2 day, SW480.7/pCEP4-0 day, SW480.7/pCEP4-1 day, SW480.7/pCEP4-2 day. Protocol for total RNA extraction by TRIZOL® Reagent was according to that given by Life Technology:\ncDNA Amplification by PCR\n8. Electrophoreses 5 μl of each PCR reaction alongside 0.1 μg of 1-kb DNA ladder on a 1.2% agarose/EtBr gel in 1×TBE buffer."}, "[2]": {"tested_on": "SW480.7 cells", "assay": "Cell proliferation status / death after ligand transfection, SW480.7", "details": "SW480.7, 15 days, without puromycin selection", "method": "as §1\n(§2) Cells SW480.7, U-2OS, and Sa-os2 were transfected with peptide ligand and pCEP4 parallelly using the calcium phosphate method.\n(§3) After transfection, cells were cultured without drug selection and diluted at the ratio of 1:100 every five days. Cell proliferation status was closely observed until ligand transfected SW480.7 cells died out. Life staining with 0.4% trypan blue was applied to determine the death of the cells. Dead cells can not exclude the dye thus were stained blue. Living cells can pump the dye outside thus were not stained. […]"}, "[3]": {"tested_on": "U-2 OS (WTp53)", "assay": "Cell proliferation status after ligand transfection, U-2 OS", "details": "U2-OS, without puromycin selection", "method": "as §1, §2, §3"}, "[4]": {"tested_on": "Saos2 cells (no p53 copy)", "assay": "Cell proliferation status after ligand transfection, Saos-2", "details": "Saos-2, without puromycin selection", "method": "as §1, §2, §3"}, "[5]": {"details": "ligand transfected SW480.7 compared with empty pCEP4 transfected SW480.7 cells"}},
  "data": [
    {"substance": "M G W C T (MGWCT; Peptide sequence translated from DNA extracted from library-transfected cells.) [ligand]", "values": [
      {"measurement": "Restoration of wild type p53 function (RT-PCR analysis of mRNA)", "setting": "[1]; ligand transfected SW480.7 cells", "result": "can reestablish wild type p53 function"},
      {"measurement": "mRNA level of 14-3-3 gene", "setting": "[1]; [5]", "result": "Higher"},
      {"measurement": "mRNA level of CD95 gene", "setting": "[1]; [5]", "result": "Higher"},
      {"measurement": "mRNA level of p21 (WAF1/Cip1) gene", "setting": "[1]; [5]", "result": "Higher"},
      {"measurement": "Cell growth status after transfection of the ligand", "setting": "[2]", "result": "could no longer attach to the wall and died"},
      {"measurement": "Cell growth status after transfection of the ligand", "setting": "[3]", "result": "growing well"},
      {"measurement": "Cell growth status after transfection of the ligand", "setting": "[4]", "result": "growing well"}
    ]}
  ]
}
